We go through 27 compounds from patent US8779142B2, “Azabicyclo compound and salt thereof” (Taiho Pharmaceutical Co., Ltd., priority 2009, dated 2014).

Where two headings read alike, the source gives them in different places.

One assay relates to SK-BR-3 cells. The experiment in a line: Measurement of cell growth inhibition (crystal violet staining method). It counts as cell-based.
In assay [1] the target is human HSP90 alpha protein (HSP90 N-terminal protein, amino acids 2-236) (Homo sapiens (Human), UniProt P07900). The assay can be described thus: Measurement of HSP90-binding activity (AlphaScreen competitive assay, biotin-labeled geldanamycin). To be noted: read-out: HSP-binding activity IC50.
The mark [2] stands for this setting: Homo sapiens, breast cancer SK-BR-3 cells, 72 hr culture with test substance.
Where [3] appears, read: concentration inhibiting binding of biotin-labeled geldanamycin (40 nM) to purified HSP90 to 50% of control.

In general, IC50 refers to the midpoint of a concentration-inhibition curve. For `Cc1c(C(N)=O)ccc(-n2nc(C(C)C)c3c(-n4cnc(-c5cnn(C)c5)c4)ccnc32)c1C` [Example 129, 4-{3-Isopropyl-4-(4-(1-methyl-1H-pyrazol-4-yl)-1H-imidazol-1-yl)-1H-pyrazolo[3,4-b]pyridin-1-yl}-2,3-dimethylbenzamide], the values for the IC50 (in the assay with SK-BR-3 cells (setting [2]); in assay [1] (setting [3])) were 1130 nM and 290 nM, respectively.

Regarding `Cc1cc(C(N)=O)ccc1-n1nc(C(C)C)c2c(-n3cnc(-c4cccnc4)c3)ccnc21` [Example 135, 4-{3-Isopropyl-4-(4-(pyridin-3-yl)-1H-imidazol-1-yl)-1H-pyrazolo[3,4-b]pyridin-1-yl}-3-methylbenzamide], the 50% inhibitory concentration (IC50) came to 690 nM in the assay with SK-BR-3 cells (setting [2]) and 400 nM in assay [1] (setting [3]).

Take `NC(=O)c1ccc(-n2ccc3ccccc32)c(Cl)c1` [Comparative Example 6, reference compound]: the IC50 in the assay with SK-BR-3 cells (setting [2]) was > 10000 nM; in assay [1] (setting [3]), > 100000 nM.

In the case of `CC(C)NC(=O)c1ccc(-c2cn(-c3ccnc4c3c(C(C)C)nn4-c3ccc(C(N)=O)cc3Cl)cn2)cc1` [Example 150, 4-{1-(1-(4-Carbamoyl-2-chlorophenyl)-3-isopropyl-1H-pyrazolo[3,4-b]pyridin-4-yl)-1H-imidazol-4-yl}-N-isopropylbenzamide], the IC50 in the assay with SK-BR-3 cells (setting [2]) came out at 1330 nM; in assay [1] (setting [3]) it was 930 nM.

As to `CCc1cn(-c2ccc(C(N)=O)c(N[C@H]3CC[C@H](N)CC3)c2)c2nccc(-c3cnc4ccccc4c3)c12` [Example 72, 2-(Trans-4-aminocyclohexylamino)-4-{3-ethyl-4-(quinolin-3-yl)-1H-pyrrolo[2,3-b]pyridin-1-yl}benzamide], the IC50 with SK-BR-3 cells (setting [2]) came out at 110 nM; in assay [1] (setting [3]), 260 nM.

Regarding `CNc1cc(-n2nc(C(C)C)c3c(-n4cnc(-c5cnn(C)c5)c4)ccnc32)ccc1C(N)=O` [Example 110, 4-{3-Isopropyl-4-(4-(1-methyl-1H-pyrazol-4-yl)-1H-imidazol-1-yl)-1H-pyrazolo[3,4-b]pyridin-1-yl}-2-(methylamino)benzamide], the IC50 in the assay on SK-BR-3 cells (setting [2]) is 490 nM; in assay [1] (setting [3]), 310 nM.

Regarding `CC(C)c1nn(-c2ccc(C(N)=O)c(N[C@H]3CC[C@H](O)CC3)c2)c2ccnc(-c3cnc4ccccc4c3)c12` [Example 4, 2-(Trans-4-hydroxycyclohexylamino)-4-{3-isopropyl-4-(quinolin-3-yl)-1H-pyrazolo[4,3-c]pyridin-1-yl}benzamide], the IC50 in the assay with SK-BR-3 cells (Homo sapiens, SK-BR-3, 72 h) worked out at 820 nM; in assay [1], 1600 nM.

On to `CCc1cc(C(N)=O)ccc1-n1nc(C(C)C)c2c(-n3cnc(-c4cccnc4)c3)ccnc21` [Example 136, 3-Ethyl-4-{3-isopropyl-4-(4-(pyridin-3-yl)-1H-imidazol-1-yl)-1H-pyrazolo[3,4-b]pyridin-1-yl}benzamide], for which the IC50 with SK-BR-3 cells (setting [2]) was determined as 270 nM; in assay [1] (setting [3]), 130 nM.

With `CC(C)c1nn(-c2ccc(C(N)=O)c(NCCN(C)C)c2)c2nccc(-c3cnc4ccccc4c3)c12` [Example 27, 2-{2-(Dimethylamino)ethylamino}-4-{3-isopropyl-4-(quinolin-3-yl)-1H-pyrazolo[3,4-b]pyridin-1-yl}benzamide], the IC50 with SK-BR-3 cells (setting [2]) was found to be 130 nM; in assay [1] (setting [3]), 240 nM.

In the case of `CCCNc1cc(C(N)=O)ccc1-n1nc(C(F)(F)F)c2c(-n3cnc(-c4cnn(C)c4)c3)ccnc21` [Example 163, 4-{4-(4-(1-Methyl-1H-pyrazol-4-yl)-1H-imidazol-1-yl)-3-(trifluoromethyl)-1H-pyrazolo[3,4-b]pyridin-1-yl}-3-(propylamino)benzamide], the IC50 in the assay with SK-BR-3 cells (setting [2]) came to 60 nM; in assay [1] (setting [3]), 100 nM.

As to `NC(=O)c1ccc(-n2nc(C(F)(F)F)c3c(-c4cnc5ccccc5c4)ccnc32)cc1N[C@H]1CC[C@H](O)CC1` [Example 1, 2-(Trans-4-hydroxycyclohexylamino)-4-{4-(quinolin-3-yl)-3-(trifluoromethyl)-1H-pyrazolo[3,4-b]pyridin-1-yl}benzamide], the IC50 in the assay with SK-BR-3 cells (setting [2]) was found to be 20 nM; in assay [1] (setting [3]), 120 nM.

Regarding `CCNc1cc(C(N)=O)ccc1-n1nc(C(F)(F)F)c2c(-n3cnc(-c4cnn(CC)c4)c3)ccnc21` [Example 185, 4-{4-(4-(1-Ethyl-1H-pyrazol-4-yl)-1H-imidazol-1-yl)-3-(trifluoromethyl)-1H-pyrazolo[3,4-b]pyridin-1-yl}-3-(ethylamino)benzamide], the IC50 in the assay on SK-BR-3 cells (setting [2]) came out at 210 nM; in assay [1] (setting [3]), 190 nM.

On to `CC(C)n1cc(-c2cn(-c3ccnc4c3c(C(F)(F)F)nn4-c3ccc(C(N)=O)cc3N)cn2)cn1` [Example 186, 3-Amino-4-{4-(4-(1-isopropyl-1H-pyrazol-4-yl)-1H-imidazol-1-yl)-3-(trifluoromethyl)-1H-pyrazolo[3,4-b]pyridin-1-yl}benzamide], for which the IC50 came to 1930 nM in the assay on SK-BR-3 cells (setting [2]) and 800 nM in assay [1] (setting [3]).

`CC(=O)N[C@H]1CC[C@H](Nc2cc(-n3cc(C)c4c(-c5cnc6ccccc6c5)ccnc43)ccc2C(N)=O)CC1` [Example 62, 2-(Trans-4-acetamidocyclohexylamino)-4-{3-methyl-4-(quinolin-3-yl)-1H-pyrrolo[2,3-b]pyridin-1-yl}benzamide]: the results for the IC50 (in the assay with SK-BR-3 cells (setting [2]); in assay [1] (setting [3])) were 210 nM and 610 nM, respectively.

Turning to “4-{4-(4-(1-(Hydroxyethyl)-1H-pyrazol-4-yl)-1H-imidazol-1-yl)-3-isopropyl-1H-pyrazolo[3,4-b]pyridin-1-yl}-2-(isopropyl)benzamide [Example 148]”, the IC50 in the assay with SK-BR-3 cells was 240 nM; in assay [1], 400 nM.

For the compound `Cc1cc(C(N)=O)ccc1-n1nc(C(C)C)c2c(-c3cnc4ccccc4c3)ccnc21` [Example 80, 4-{3-Isopropyl-4-(quinolin-3-yl)-1H-pyrazolo[3,4-b]pyridin-1-yl}-3-methylbenzamide], the IC50 with SK-BR-3 cells (setting [2]) turned out to be 290 nM; in assay [1] (setting [3]), 470 nM.

In the case of `Cn1cc(-c2cn(-c3ccnc4c3c(C(F)(F)F)nn4-c3ccc(C(N)=O)c(N)c3)cn2)cn1` [Example 157, 2-Amino-4-{4-(4-(1-methyl-1H-pyrazol-4-yl)-1H-imidazol-1-yl)-3-(trifluoromethyl)-1H-pyrazolo[3,4-b]pyridin-1-yl}benzamide], the values for the IC50 (in the assay on SK-BR-3 cells (setting [2]); in assay [1] (setting [3])) were 190 nM and 130 nM, respectively.

`CC(C)c1nn(-c2ccc(C(N)=O)cc2C2CC2)c2nccc(-n3cnc(-c4cnn(C)c4)c3)c12` [Example 105, 3-Cyclopropyl-4-{3-isopropyl-4-(4-(1-methyl-1H-pyrazol-4-yl)-1H-imidazol-1-yl)-1H-pyrazolo[3,4-b]pyridin-1-yl}benzamide]: the IC50 in the assay on SK-BR-3 cells (setting [2]) turned out to be 250 nM; in assay [1] (setting [3]), 140 nM.

On to `CC(C)c1cc(C(N)=O)ccc1-n1nc(C(C)C)c2c(-n3cnc(-c4cccnc4)c3)ccnc21` [Example 137, 3-Isopropyl-4-{3-isopropyl-4-(4-(pyridin-3-yl)-1H-imidazol-1-yl)-1H-pyrazolo[3,4-b]pyridin-1-yl}benzamide], for which the IC50 came to 430 nM with SK-BR-3 cells (setting [2]) and 280 nM in assay [1] (setting [3]).

For `Cn1cc(-c2cn(-c3ccnc4c3c(C(F)(F)F)nn4-c3ccc(C(N)=O)cc3N)cn2)cn1` [Example 158, 3-Amino-4-{4-(4-(1-methyl-1H-pyrazol-4-yl)-1H-imidazol-1-yl)-3-(trifluoromethyl)-1H-pyrazolo[3,4-b]pyridin-1-yl}benzamide], the values for the half-maximal inhibitory concentration (IC50) (in the assay with SK-BR-3 cells (setting [2]); in assay [1] (setting [3])) were 200 nM and 100 nM, respectively.

For `Cn1cc(-c2cn(-c3ccnc4c3c(C(F)(F)F)nn4-c3ccc(C(N)=O)cc3Br)cn2)cn1` [Example 170, 3-Bromo-4-{4-(4-(1-methyl-1H-pyrazol-4-yl)-1H-imidazol-1-yl)-3-(trifluoromethyl)-1H-pyrazolo[3,4-b]pyridin-1-yl}benzamide], the IC50 with SK-BR-3 cells (setting [2]) was 370 nM; in assay [1] (setting [3]) it was 210 nM.

For the compound `C=C(C)c1cc(C(N)=O)ccc1-n1nc(C(F)(F)F)c2c(-n3cnc(-c4cnn(C)c4)c3)ccnc21` [Example 174, 4-{4-(4-(1-Methyl-1H-pyrazol-4-yl)-1H-imidazol-1-yl)-3-(trifluoromethyl)-1H-pyrazolo[3,4-b]pyridin-1-yl}-3-(prop-1-en-2-yl)benzamide], the IC50 came to 380 nM with SK-BR-3 cells (setting [2]) and 320 nM in assay [1] (setting [3]).

Turning to `NC(=O)c1ccc(-n2nc(C(F)(F)F)c3c(-n4cnc(-c5cccnc5)c4)ccnc32)cc1N` [Example 176, 2-Amino-4-{4-(4-(pyridin-3-yl)-1H-imidazol-1-yl)-3-(trifluoromethyl)-1H-pyrazolo[3,4-b]pyridin-1-yl}benzamide], the IC50 in the assay on SK-BR-3 cells (setting [2]) came to 410 nM; in assay [1] (setting [3]), 420 nM.

As to `CC(C)c1nn(-c2ccc(C(N)=O)c(Nc3ccc(C(=O)N4CCCC4)cc3)c2)c2nccc(-c3cnc4ccccc4c3)c12` [Example 34, 4-{3-Isopropyl-4-(quinolin-3-yl)-1H-pyrazolo[3,4-b]pyridin-1-yl}-2-{4-(pyrrolidine-1-carbonyl)phenylamino}benzamide], the IC50 in the assay with SK-BR-3 cells (setting [2]) was 50 nM; in assay [1] (setting [3]), 570 nM.

As to `CCCc1cn(-c2ccc(C(N)=O)c(N[C@H]3CC[C@H](O)CC3)c2)c2nccc(-c3cnc4ccccc4c3)c12` [Example 45, 2-(Trans-4-hydroxycyclohexylamino)-4-{3-propyl-4-(quinolin-3-yl)-1H-pyrrolo[2,3-b]pyridin-1-yl}benzamide], the half-maximal inhibitory concentration (IC50) was found to be 10 nM in the assay on SK-BR-3 cells (setting [2]) and 90 nM in assay [1] (setting [3]).

Take `CCc1cc(C(N)=O)ccc1-n1nc(C(C)C)c2c(-n3cnc(-c4cnn(C)c4)c3)ccnc21` [Example 102, 3-Ethyl-4-{3-isopropyl-4-(4-(1-methyl-1H-pyrazol-4-yl)-1H-imidazol-1-yl)-1H-pyrazolo[3,4-b]pyridin-1-yl}benzamide]: the figures for the IC50 (with SK-BR-3 cells (setting [2]); in assay [1] (setting [3])) were 170 nM and 210 nM, respectively.

Turning to `CCc1c(-n2nc(C(C)C)c3c(-n4cnc(-c5cnn(C)c5)c4)ccnc32)ccc(C(N)=O)c1N` [Example 134, 2-Amino-3-ethyl-4-{3-isopropyl-4-(4-(1-methyl-1H-pyrazol-4-yl)-1H-imidazol-1-yl)-1H-pyrazolo[3,4-b]pyridin-1-yl}benzamide], the figures for the IC50 (in the assay with SK-BR-3 cells (setting [2]); in assay [1] (setting [3])) were 110 nM and 200 nM, respectively.
